Laboratory results published in publication PMC9609429 (Pharmaceuticals, 2022).

Assays:
α1-adrenergic receptors = assay: Influence on blood vasopressor response to adrenaline, noradrenaline and methoxamine in rats; format: in vivo; details: rat, 1.25 mg/kg iv, 5 min after administration
Description: To establish agonistic or antagonistic toward α1-adrenergic receptors, we studied the influence of the studied compound on the pressor response to adrenaline (2 µg/kg), noradrenaline (2 µg/kg), and methoxamine (150 µg/kg). Normotensive rats were anesthetized with thiopental (75 mg/kg ip). The right carotid artery was cannulated with a polyethylene tube filled with heparin solution to allow pressure measurements, using a Datamax apparatus (Columbus Instruments, Columbus, OH, USA). The experiment was carried out after 15 min of the stabilization period. The pressor response to adrenaline, noradrenaline, and methoxamine was measured before (control) and 5 min after the administration of the tested compound.

α2-adrenoceptor = α2-adrenoceptor radioligand binding assay ([3H]-clonidine, rat cerebral cortex)
Description: (§1) The α1-, α2-, and β1-adrenoceptor radioligand binding assay was carried out on the rat cerebral cortex. […] The brains were homogenized using ULTRA-TURRAX homogenizer in 10 mL of an ice-cold 50 mM Tris–HCl buffer (pH 7.6). Homogenates were centrifuged at 20,000× g for 20 min (0–4 °C). Next, the cell pellet was resuspended in the Tris–HCl buffer and centrifuged again. Radioligand binding assays were performed in plates (MultiScreen/Millipore). The final incubation mixture (volume 300 μL) consisted of 240 μL of the tissue suspension, 30 μL of radioligand solution, and 30 μL of the buffer containing 7–8 concentrations of the tested compound. […] The incubation was terminated by rapid filtration through Whatman GF/C filters using a vacuum manifold (Millipore). The filters were then washed twice with the assay buffer and placed in scintillation vials with a liquid scintillation cocktail. […] All the assays were made in duplicates and the inhibitory constants (Ki) were estimated.

β1-adrenergic receptor = target: T1, β1-adrenergic receptor (Rattus norvegicus, UniProt P18090); assay: β1-adrenoceptor radioligand binding assay ([3H]-CGP-12177, rat cerebral cortex)
T1 construct: from tissue; host or cells: rat cerebral cortex homogenate
T1 sequence (P18090 whole entry): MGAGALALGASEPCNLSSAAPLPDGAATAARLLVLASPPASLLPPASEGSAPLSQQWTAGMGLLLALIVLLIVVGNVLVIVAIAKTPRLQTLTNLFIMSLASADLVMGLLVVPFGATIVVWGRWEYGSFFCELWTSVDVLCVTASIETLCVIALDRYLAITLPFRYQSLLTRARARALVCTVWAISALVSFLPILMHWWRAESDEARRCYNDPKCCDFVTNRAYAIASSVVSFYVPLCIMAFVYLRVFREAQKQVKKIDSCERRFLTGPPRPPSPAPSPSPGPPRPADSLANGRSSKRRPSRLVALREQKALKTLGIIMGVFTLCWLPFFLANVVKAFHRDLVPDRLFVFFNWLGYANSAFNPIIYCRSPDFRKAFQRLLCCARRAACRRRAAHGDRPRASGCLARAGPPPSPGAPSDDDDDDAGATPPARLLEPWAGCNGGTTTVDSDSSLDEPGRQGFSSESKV
Description: as §1

α1-adrenoceptor = α1-adrenoceptor radioligand binding assay ([3H]-prazosin, rat cerebral cortex); details: rat cortex tissue
Description: The α1-, α2-, and β1-adrenoceptor radioligand binding assay was carried out on the rat cerebral cortex. [^3H]-prazosin (19.5 Ci/mmol, α1-adrenoceptor), [^3H]-clonidine (70.5 Ci/mmol, α2-adrenoceptor), and [^3H]-CGP-12177 (48 Ci/mmol, β1-adrenergic receptor) were used as specific ligands. The brains were homogenized using ULTRA-TURRAX homogenizer in 10 mL of an ice-cold 50 mM Tris–HCl buffer (pH 7.6). Homogenates were centrifuged at 20,000× g for 20 min (0–4 °C). Next, the cell pellet was resuspended in the Tris–HCl buffer and centrifuged again. Radioligand binding assays were performed in plates (MultiScreen/Millipore). The final incubation mixture (volume 300 μL) consisted of 240 μL of the tissue suspension, 30 μL of radioligand solution, and 30 μL of the buffer containing 7–8 concentrations of the tested compound. […] The incubation was terminated by rapid filtration through Whatman GF/C filters using a vacuum manifold (Millipore). The filters were then washed twice with the assay buffer and placed in scintillation vials with a liquid scintillation cocktail. Radioactivity was measured in a WALLAC 1409 DSA liquid scintillation counter (Perkin Elmer, Waltham, MA, USA). All the assays were made in duplicates and the inhibitory constants (Ki) were estimated.

Adrenergic Receptors—pKi α2 (α2-adrenoceptor; rat cortex tissue, [3H]-clonidine): 5.72
affinity towards α2-adrenoceptor lower compared with the α1 receptor (α2-adrenoceptor; rat cortex, α1 vs α2): over 600 fold
Ki (β1-adrenergic receptor; rat cortex tissue, [3H]-CGP-12177, read-out: Adrenergic Receptors—pKi β1 (converted)): 3.02 µM
affinity towards β1-adrenoceptor lower compared with the α1 receptor (β1-adrenergic receptor; rat cortex, α1 vs β1): > 1000 fold
Adrenergic Receptors—pKi α1 (α1-adrenoceptor): 8.55
SMILES: CCC(CN1CCN(c2ccccc2OC)CC1)NCCCOc1c(C)cccc1C.Cl.Cl (centres unmarked) [HBK-10, N-(3-(2,6-dimethylphenoxy)propyl)-1-(4-(2-methoxyphenyl)piperazin-1-yl)butan-2-amine dihydrochloride]
attenuation of adrenaline pressor response (α1-adrenergic receptors; adrenaline 2 μg/kg): 77.2%
attenuation of methoxamine pressor response (α1-adrenergic receptors; methoxamine 150 μg/kg): 77.4%
attenuation of noradrenaline pressor response (α1-adrenergic receptors; noradrenaline 2 μg/kg): 32.5%
